Results on 19 compounds are retold here after patent publication US9024017B2, “Octahydro-cyclopentapyrrolyl antagonists of CCR2” (Janssen Pharmaceutica NV, priority 2012, dated 2015).

For this experiment, the target named is T1, CCR2 (Homo sapiens, UniProt P41597).
T1 construct: host or cells: THP-1 (human monocytic cell line)
As to the kind of experiment: MCP-1 Receptor Binding Assay in THP-1 Cells. As to conditions: read-out: MCP1B_v3 IC50. As to the method:
Compounds of the invention were subjected to various representative biological tests. […] MCP-1 Receptor Binding Assay in THP-1 Cells Human monocytic cell line THP-1 cells were obtained from American Type Culture Collection (Manassas, Va., USA). The THP-1 cells were grown in RPMI-1640 (RPMI: Roswell Park Memorial Institute Medium-cell culture growth media) supplemented with 10% fetal bovine serum in a humidified 5% CO2 atmosphere at 37° C. The cell density was maintained between […].
THP-1 (cells were incubated with 0.5 nM ^125I labeled MCP-1 (Perkin-Elmer Life Sciences, Inc. Boston, Mass.) in the presence of varying concentrations of either unlabeled MCP-1 (R & D Systems, Minneapolis, Minn.) or test compound for 2 hours at 30° C. in a 96 well plate. Cells were then harvested onto a filter plate, dried, and 20 μL of Microscint 20 was added to each well. Plates were counted in a TopCount NXT, Microplate Scintillation & Luminescence Counter (Perkin-Elmer Life Sciences, Inc. Boston, Mass.). Blank values (buffer only) were subtracted from all values and drug treated values were compared to vehicle treated values. 1 μM cold MCP-1 was used for nonspecific binding.

T1 sequence (P41597 whole entry): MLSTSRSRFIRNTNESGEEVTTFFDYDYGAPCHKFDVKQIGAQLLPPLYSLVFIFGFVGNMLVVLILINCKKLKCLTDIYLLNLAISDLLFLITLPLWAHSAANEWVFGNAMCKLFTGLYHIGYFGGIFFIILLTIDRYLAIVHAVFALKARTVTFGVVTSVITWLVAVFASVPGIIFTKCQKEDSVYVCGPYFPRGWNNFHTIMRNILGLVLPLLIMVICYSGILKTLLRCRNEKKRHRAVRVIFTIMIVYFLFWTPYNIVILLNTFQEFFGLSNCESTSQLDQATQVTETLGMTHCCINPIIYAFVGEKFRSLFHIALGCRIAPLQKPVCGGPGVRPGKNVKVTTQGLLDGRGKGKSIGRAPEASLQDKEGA

For `COC1COCCC1N[C@@H]1C[C@H]2C(=O)NC[C@@]2(C(=O)N2CCc3ncc(C(F)(F)F)cc3C2)C1` (relative stereo) [Example 118, (3aR,5R,6aR)-5-(((3S*,4S*)-3-Methoxytetrahydro-2H-pyran-4-yl)amino)-3a-(3-(trifluoromethyl)-5,6,7,8-tetrahydro-1,6-naphthyridine-6-carbonyl)hexahydro-cyclopenta[c]pyrrol-(2H)-one], the half-maximal inhibitory concentration (IC50) stood at 22800 nM.
Turning to `COC1COCCC1N[C@@H]1C[C@H]2CN(C(=O)Nc3ccccc3)C[C@@]2(C(=O)N2CCc3ncc(C(F)(F)F)cc3C2)C1` (relative stereo) [Example 16, (3aR,5R,6aR)-5-(((3S*,4S*)-(3-methoxytetrahydro-2H-pyran-4-yl)amino)-N-phenyl-3a-(3-(trifluoromethyl)-5,6,7,8-tetrahydro-1,6-naphthyridine-6-carbonyl)hexahydrocyclopenta-[c]pyrrole-2(1H)-carboxamide], the 50% inhibitory concentration (IC50) was 470 nM.
As for `COC1COCCC1N[C@@H]1C[C@H]2CN(C(=O)NC(C)C)C[C@@]2(C(=O)N2CCc3ncc(C(F)(F)F)cc3C2)C1` (relative stereo) [Example 14, (3aR,5R,6aR)-N-Isopropyl-5-(((3S*,4S*)-(3-methoxytetrahydro-2H-pyran-4-yl)amino)-3a-(3-(trifluoromethyl)-5,6,7,8-tetrahydro-1,6-naphthyridine-6-carbonyl)hexahydrocyclopenta[c]pyrrole-2(1H)-carboxamide], the IC50 was 410 nM.
On to `COC1COCCC1N[C@@H]1C[C@H]2CN(C(=O)OCCC#N)C[C@@]2(C(=O)N2CCc3ncc(C(F)(F)F)cc3C2)C1` (relative stereo) [Example 52, (3aR,5R,6aR)-2-Cyanoethyl 5-(((3S*,4S*)-3-methoxytetrahydro-2H-pyran-4-yl)amino)-3a-(3-(trifluoromethyl)-5,6,7,8-tetrahydro-1,6-naphthyridine-6-carbonyl)hexahydrocyclopenta[c]pyrrole-2(1H)-carboxylate], for which the IC50 was 130 nM.
Take `CO[C@@H]1COCC[C@@H]1N[C@@H]1C[C@H]2CN(C(N)=O)C[C@@]2(C(=O)N2CCc3ncc(C(F)(F)F)cc3C2)C1` [Example 3]: the half-inhibitory concentration (IC50) is 30 nM.
For `COC1COCCC1N[C@@H]1C[C@H]2CN(C3COC3)C[C@@]2(C(=O)N2CCc3ncc(C(F)(F)F)cc3C2)C1` (relative stereo) [Example 99, ((3aR,5R,6aR)-5-(((3S*,4S*)-3-methoxytetrahydro-2H-pyran-4-yl)amino)-2-(oxetan-3-yl)octahydrocyclopenta[c]pyrrol-3a-yl)(3-(trifluoromethyl)-7,8-dihydro-1,6-naphthyridin-6(5H)-yl)methanone], the IC50 amounted to 130 nM.
Regarding `CCOC1COCCC1N[C@@H]1C[C@H]2CN(C(N)=O)C[C@@]2(C(=O)N2CCc3ncc(C(F)(F)F)cc3C2)C1` (relative stereo) [Example 9, (3aR,5R,6aR)-5-(((3S*,4S*)-3-Ethoxytetrahydro-2H-pyran-4-yl)amino)-3a-(3-(trifluoromethyl)-5,6,7,8-tetrahydro-1,6-naphthyridine-6-carbonyl)hexahydrocyclopenta-[c]pyrrole-2(1H)-carboxamide], the concentration for half-maximal inhibition (IC50) was 190 nM.
The value for `COC1COCCC1N[C@@H]1C[C@H]2CN(C(=O)c3ccno3)C[C@@]2(C(=O)N2CCc3ncc(C(F)(F)F)cc3C2)C1` (relative stereo) [Example 71, Isoxazol-5-yl((3aR,5R,6aR)-5-(((3S*,4S*)-3-methoxytetrahydro-2H-pyran-4-yl)amino)-3a-(3-(trifluoromethyl)-5,6,7,8-tetrahydro-1,6-naphthyridine-6-carbonyl)hexahydrocyclopenta-[c]pyrrol-2(1H)-yl)methanone] was 160 nM; that for `COC1COCCC1N[C@@H]1C[C@H]2CN(C(=O)CN(C)C)C[C@@]2(C(=O)N2CCc3ncc(C(F)(F)F)cc3C2)C1` (relative stereo) [Example 76, 2-(Dimethylamino)-1-((3aR,5R,6aR)-5-(((3S*,4S*)-3-methoxytetrahydro-2H-pyran-4-yl)amino)-3a-(3-(trifluoromethyl)-5,6,7,8-tetrahydro-1,6-naphthyridine-6-carbonyl)hexahydrocyclopenta[c]pyrrol-2(1H)-yl)ethanone] was 160 nM; that for `COC(=O)CN1C[C@@H]2C[C@@H](NC3CCOCC3OC)C[C@]2(C(=O)N2CCc3ncc(C(F)(F)F)cc3C2)C1` (relative stereo) [Example 107, Methyl 2-((3aR,5R,6aR)-5-(((3S*,4S*)-3-methoxytetrahydro-2H-pyran-4-yl)amino)-3a-(3-(trifluoromethyl)-5,6,7,8-tetrahydro-1,6-naphthyridine-6-carbonyl)hexahydrocyclopenta[c]pyrrol-2(1H)-yl)acetate] was 1100 nM.
Consider `COC1COCCC1N[C@@H]1C[C@H]2CN(C(=O)C#CC3CC3)C[C@@]2(C(=O)N2CCc3ncc(C(F)(F)F)cc3C2)C1` (relative stereo) [Example 86, 3-Cyclopropyl-1-((3aR,5R,6aR)-5-(((3S*,4S*)-3-methoxytetrahydro-2H-pyran-4-yl)amino)-3a-(3-(trifluoromethyl)-5,6,7,8-tetrahydro-1,6-naphthyridine-6-carbonyl)hexahydro-cyclopenta[c]pyrrol-2(1H)-yl)prop-2-yn-1-one], for which the IC50 was determined as 90 nM.
The value for `COC1COCCC1N[C@@H]1C[C@H]2CN(S(C)(=O)=O)C[C@@]2(C(=O)N2CCc3ncc(C(F)(F)F)cc3C2)C1` (relative stereo) [Example 91, ((3aR,5R,6aR)-5-(((3S*,4S*)-3-Methoxytetrahydro-2H-pyran-4-yl)amino)-2-(methylsulfonyl)octahydrocyclopenta[c]pyrrol-3a-yl)(3-(trifluoromethyl)-7,8-dihydro-1,6-naphthyridin-6(5H)-yl)methanone] was 610 nM; that for `COC1COCCC1N[C@@H]1C[C@H]2CN(C3CCOCC3OC)C[C@@]2(C(=O)N2CCc3ncc(C(F)(F)F)cc3C2)C1` (relative stereo) [Example 104, ((3aR,5R,6aR)-2-((3S*,4S*)-3-Methoxytetrahydro-2H-pyran-4-yl)-5-(((3S*,4S*)-3-methoxytetrahydro-2H-pyran-4-yl)amino)octahydrocyclopenta[c]pyrrol-3a-yl)(3-(trifluoromethyl)-7,8-dihydro-1,6-naphthyridin-6(5H)-yl)methanone] was 1980 nM.
Regarding `CCN1C[C@@H]2C[C@@H](NC3CCOCC3OC)C[C@]2(C(=O)N2CCc3ncc(C(F)(F)F)cc3C2)C1` (relative stereo) [Example 98, ((3aR,5R,6aR)-2-Ethyl-5-(((3S*,4S*)-3-methoxytetrahydro-2H-pyran-4-yl)amino)octahydrocyclopenta[c]pyrrol-3a-yl)(3-(trifluoromethyl)-7,8-dihydro-1,6-naphthyridin-6(5H)-yl)methanone], the 50% inhibitory concentration (IC50) was determined as 630 nM.
For the compound `COC1COCCC1N(C(=S)NCC(C)C)[C@@H]1C[C@H]2CN(C(=S)NCC(C)C)C[C@@]2(C(=O)N2CCc3ncc(C(F)(F)F)cc3C2)C1` (relative stereo) [Example 30, (3aR,5R,6aR)-N-Isobutyl-5-((3S*,4S*)-3-isobutyl-1-(3-methoxytetrahydro-2H-pyran-4-yl)thioureido)-3a-(3-(trifluoromethyl)-5,6,7,8-tetrahydro-1,6-naphthyridine-6-carbonyl)hexahydrocyclopenta[c]pyrrole-2(1H)-carbothioamide], the half-maximal inhibitory concentration (IC50) amounted to 90 nM.
The value for `COC1COCCC1N[C@@H]1C[C@H]2CN(C(=O)COc3ccccc3)C[C@@]2(C(=O)N2CCc3ncc(C(F)(F)F)cc3C2)C1` (relative stereo) [Example 68, 1-((3aR,5R,6aR)-5-(((3S*,4S*)-3-Methoxytetrahydro-2H-pyran-4-yl)amino)-3a-(3-(trifluoromethyl)-5,6,7,8-tetrahydro-1,6-naphthyridine-6-carbonyl)hexahydrocyclopenta-[c]pyrrol-2(1H)-yl)-2-phenoxyethanone] was 130 nM; that for `COC1COCCC1N[C@@H]1C[C@H]2CN(C3CC3)C[C@@]2(C(=O)N2CCc3ccc(C(F)(F)F)cc3C2)C1` (relative stereo) [Example 95, ((3aR,5R,6aR)-2-Cyclopropyl-5-(((3S*,4S*)-3-methoxytetrahydro-2H-pyran-4-yl)amino)octahydrocyclopenta[c]pyrrol-3a-yl)(7-(trifluoromethyl)-3,4-dihydroisoquinolin-2(1H)-yl)methanone] was 30 nM; that for `COC1COCCC1N[C@@H]1C[C@H]2CN(c3nccs3)C[C@@]2(C(=O)N2CCc3ncc(C(F)(F)F)cc3C2)C1` (relative stereo) [Example 110, ((3aR,5R,6aR)-5-(((3S*,4S*)-3-Methoxytetrahydro-2H-pyran-4-yl)amino)-2-(thiazol-2-yl)octahydrocyclopenta[c]pyrrol-3a-yl)(3-(trifluoromethyl)-7,8-dihydro-1,6-naphthyridin-6(5H)-yl)methanone] was 150 nM.
`COc1ccc(COC(=O)N2C[C@@H]3C[C@@H](NC4CCOCC4OC)C[C@]3(C(=O)N3CCc4ncc(C(F)(F)F)cc4C3)C2)cc1` (relative stereo) [Example 61, (3aR,5R,6aR)-4-Methoxybenzyl 5-(((3S*,4S*)-3-methoxytetrahydro-2H-pyran-4-yl)amino)-3a-(3-(trifluoromethyl)-5,6,7,8-tetrahydro-1,6-naphthyridine-6-carbonyl)hexahydrocyclopenta-[c]pyrrole-2(1H)-carboxylate]: the IC50 was determined as 390 nM.
